In the NIST ThermoML archive (doi:10.1021/je060271a):

Conditions: 303.15 K, Liquid, Vibrating tube method

CCCCCC(=O)OCC(COC(=O)CCCCC)(COC(=O)CCCCC)COC(=O)CCCCC [pentaerythritol tetrahexanoate]
Conditions | mass density [kg/m3]
941.9 kPa | 988.9
951.9 kPa | 989
958.5 kPa | 988.9
967.6 kPa | 989
978.3 kPa | 988.9
988.8 kPa | 988.9
998 kPa | 988.9
1009.3 kPa | 989
1019.8 kPa | 989
1029.2 kPa | 989
1039.1 kPa | 989.1
1048.9 kPa | 989
1061.2 kPa | 989
1072 kPa | 989
1082 kPa | 989.1
1093.8 kPa | 989.1
1103.9 kPa | 989.2
1113.5 kPa | 989
1123.5 kPa | 989.2
1135.9 kPa | 989
1146.3 kPa | 989
1156.2 kPa | 989.1
1166.8 kPa | 989.1
1179.7 kPa | 989.1
1189.9 kPa | 989.1
1200.7 kPa | 989.1
1210.9 kPa | 989.1
1223.8 kPa | 989.2
1234.4 kPa | 989.1
1245.1 kPa | 989.2
1258.2 kPa | 989.1
1269.3 kPa | 989.2
1280 kPa | 989.2
1291.5 kPa | 989.2
1305.2 kPa | 989.2
1316.3 kPa | 989.2
1327.8 kPa | 989.1
1339.4 kPa | 989.3
1353.7 kPa | 989.2
1365.5 kPa | 989.2
1377.5 kPa | 989.2
1391.9 kPa | 989.3
1719.8 kPa | 989.5
1738.4 kPa | 989.5
1753.5 kPa | 989.5
1768.6 kPa | 989.6
1784.2 kPa | 989.5
1803 kPa | 989.6
1854.3 kPa | 989.5
1870.3 kPa | 989.5
1886.5 kPa | 989.6
1903.5 kPa | 989.5
1923.6 kPa | 989.6
2090.4 kPa | 989.6
2108.2 kPa | 989.7
2167.4 kPa | 989.7
2229.2 kPa | 989.8
2248.4 kPa | 989.7
2292.3 kPa | 989.8
2312.5 kPa | 989.8
2337.4 kPa | 989.9
2355.8 kPa | 989.8
2380.4 kPa | 989.9
2401.1 kPa | 989.9
2421.9 kPa | 989.8
2443 kPa | 989.9
2468.5 kPa | 990
2489.7 kPa | 990
2511 kPa | 990
2536.5 kPa | 989.9
2558.6 kPa | 990
2580.8 kPa | 990
2603.5 kPa | 990
2631.6 kPa | 990
2649.5 kPa | 990.1
2676.9 kPa | 990
2699.1 kPa | 990
2726.5 kPa | 990
2749.6 kPa | 990.2
2772.3 kPa | 990.1
2795.2 kPa | 990.1
2823.5 kPa | 990.2
2846.9 kPa | 990.2
2870.6 kPa | 990.2
2899.1 kPa | 990.1
2923.3 kPa | 990.2
2948 kPa | 990.2
2972.9 kPa | 990.3
3001.9 kPa | 990.2
3026.2 kPa | 990.3
3050.9 kPa | 990.3
3075.6 kPa | 990.3
3105.6 kPa | 990.3
3130.3 kPa | 990.3
3156 kPa | 990.4
3181.3 kPa | 990.4
3212.3 kPa | 990.4
3237.8 kPa | 990.4
3263.7 kPa | 990.4
3294.7 kPa | 990.4
3320.9 kPa | 990.4
3346.9 kPa | 990.6
3378.1 kPa | 990.5
3404.7 kPa | 990.5
3430.9 kPa | 990.6
3457.8 kPa | 990.7
3490.4 kPa | 990.6
3517.7 kPa | 990.5
3545.6 kPa | 990.5
3578.7 kPa | 990.6
3606.3 kPa | 990.7
3634.2 kPa | 990.5
3662.6 kPa | 990.7
3690.5 kPa | 990.7
3724.1 kPa | 990.7
3752.7 kPa | 990.9
3781.8 kPa | 990.7
3810.6 kPa | 990.8
3844.5 kPa | 990.8
3872.4 kPa | 990.8
3901 kPa | 990.8
3935 kPa | 990.9
3963.4 kPa | 990.9
3991.9 kPa | 990.9
4026.4 kPa | 990.9
4056 kPa | 991
4084.6 kPa | 991
4113.5 kPa | 991
4146.8 kPa | 991
4175 kPa | 991.1
4876.2 kPa | 991.5
4893.7 kPa | 991.5
4923.8 kPa | 991.5
4939.3 kPa | 991.6
4955.2 kPa | 991.5
4973.4 kPa | 991.6
4988.8 kPa | 991.5
5003.5 kPa | 991.5
5021.5 kPa | 991.7
5037.1 kPa | 991.6
5052.1 kPa | 991.7
5067.7 kPa | 991.7
5086.4 kPa | 991.5
5101.8 kPa | 991.6
5117.7 kPa | 991.7
